From patent publication US9359338B2, “Cyclopropanecarboxamido-substitute aromatic compounds as anti-tumor agents” (Crown Bioscience Inc. (Taiwan), priority 2012, dated 2016) come the findings set out here.

One experiment has as its target KDR kinase (790-1356 AA) (Homo sapiens (Human), UniProt P35968). Briefly: Inhibitory activity at KDR kinase (Lance Ultra Ulight-TK assay). The experiment is classed as biochemical. As for the experimental part:
Inhibitory Activity of Compounds at KDR Kinase
• [Experimental method]: Use Lance@Ultra Ulight™-TK assay kit from PerKinElmer to evaluate the inhibitory activity of compounds at KDR kinase. • [Instrument]: PerKinElmer's ENVISION plate reader • [Materials]: Optiplate-384 well plate (PerKinElmer), kinase buffer (50 mM Hepes pH7.5, 0.25 mM EGTA, 2 mM DTT, 0.01% Tween 20, 10 mM Mg^2+, 0.5 mM Mn^2+), KDR kinase (790-1356 AA, Crown Bioscience), KDR kinase substrate (PerKinElmer catalogue # TRF0127-M), Lance@Eu-W1024-anti-phosphotyrosine (PT66) (PerKinElmer, catalogue #AD0068), ATP (Invitrogen), DMSO (Sigma, catalogue #34869), purified water (Millipore, type: Milli-Q). • [Study conditions]: Mix KDR (final concentration: 20 nM) and compound (final DMSO: 0.5%), pre-incubate for 20 min at 30° C.; then add ATP (final concentration: 90 μM) and the substrate (final concentration […]). React for 2 hrs at 30° C. After the reaction, add antibody and reaction for 60 min at 30° C. Read the plate (615 nm, 665 nm), calculate the ratio of the value at 665 nm vs 615 nm and analyze the data. • [Samples]: Compounds in the examples and Sorafenib (positive control) • [Data Analysis]: Use CBIS data analysis software to calculate IC50 values

The test system of another experiment is PLC-PRF-5 cells. Kind of experiment: Inhibition of proliferation of PLC-PRF-5 cells (ATPlite). The experiment is classed as cell-based. Conditions: Homo sapiens, PLC-PRF-5, PLC-PRF-5 cells; read-out: PLC-PRF-5 cell proliferation IC50. The source says:
Inhibitory Activity of Compounds to the Proliferation of PLC-PRF-5 Cells
• [experimental Method]: Use PerKinElmer's ATPlite™ Luminescence ATP Detection Assay System to evaluate the inhibitory activity of compounds to the proliferation of PLC-PRF-5 cells. • [Instruments]: ENVISION plate reader (PerKinElmer) and centrifuge (Thermo Scientific, Sorvall ST16R) • [material]: PLC-PRF-5 cells (ATCC), 96-well plate (Nunc, #165305), DMEM medium (Gibco, #11965-092), PBS (Invitrogen, #10010023), fetal bovine serum (Gibco, #16000044), DMSO (Sigma, #D2650), ATPlite™ Luminescence ATP Detection Assay System (PerkinElmer, #6016949), purified water (Millipore, type: Milli-Q). • [Protocol]: Grow PLC-PRF-5 cells in DMEM supplemented with 10% FBS. When the cells reach 80% confluency, collect cells by trypsinization and centrifugation at 800 rpm for 3 min. Resuspend cells with appropriate volume of medium and count cell numbers. Adjust cell concentration to 50000 cells/mL, and split 160 μL cell suspension per well into 96-well plates. Transfer the plates into cell culture incubator (37° C., 5% CO2) and incubate cells for 2 hrs. Prepare compound serial dilutions in culture medium with total 8 compound concentrations at 3-fold serial dilutions (the final top concentration starts from 30 μM). Dispense 40 μL of each test compound dilution into corresponding wells with DMSO at 0.3% final concentration. Continue incubating cells in cell culture incubator for additional 96 hrs at 37° C., 5% CO2. Discard culture medium, and wash cells once with PBS. Add 50 μL cell lysis buffer per well and shake plates for 5 min at room temperature to ensure complete lysis of cells. Then add 50 μL of substrate solution and shake plates for 1 min at room temperature. Allow the plates to incubate at room temperature for 5 min, followed by recording the luminescence signals using Envision, and subsequent data analysis. • [Samples]: Compounds in the examples and Sorafenib (positive control) • [Data analysis]: Use CBIS data analysis software to calculate IC50 values

In another experiment the test system is pERK in MDA-MB-231 cells. Briefly: Inhibitory activity at pERK (In Cell Western, MDA-MB-231 cells). As to conditions: Homo sapiens, MDA-MB-231, MDA-MB-231 cells; read-out: MDA-MB-231 pERK IC50. The experiment is classed as cell-based. As for the experimental part: Inhibitory Activity of Compounds at pERK
When the cells reach 80% confluency, collect cells by trypsinization and centrifugation at 800 rpm for 3 minutes. Resuspend cells with appropriate volume of medium and count cell numbers. Adjust cell concentration to 70000 cells/mL, and split 100 μL cell suspension per well into 96-well plates. Transfer the plates into cell culture incubator (37° C., 5% CO2) and incubate cells overnight. Discard the medium, wash with PBS once, Prepare compound serial dilutions in culture medium with total 8 compound concentrations at 3-fold serial dilutions (the final top concentration starts from 30 μM). Dispense 75 μL DMEM medium (with 0.1% BSA) and 25 μL of each test compound dilution into corresponding wells with DMSO at 0.3% final concentration. Continue incubating cells in cell culture incubator for additional 2 hrs at 37° C., 5% CO2. Discard culture medium, and wash cells once with PBS. Add 100 μL of 4% formaldehyde solution to each well and fix for 20 min. Discard the formaldehyde, then add 100 μL ice-cold 100% methanol at 4° C. for 20 min. Discard methanol, wash with PBS three times. Add to each well 100 μL of 2% BSA solution, seal for 30 min at room temperature. Discard the BSA solution, add to each well 50 μL of the 1st antibody solution (prepared with 2% BSA, 1:250 dilution), incubate at 4° C. overnight. Discard the 1^St antibody solution, wash with PBS four times. Add to each well […] the 2nd antibody solution (prepared with 1% BSA, 1:1000 dilution), incubate at room temperature for 1 hr. Discard the 2nd antibody solution, wash with PBS four times, add to each well 100 μL PI solution (1.5 μM), incubate at room temperature for 30 min. Use Acumen (TPP) to measure the fluorescence. • [Samples]: Compounds in the examples and sorafenib (positive control) • [Data Analysis]: Use CBIS data analysis software to calculate IC50 values

pIC50: −log10 of the molar value.

KDR kinase (790-1356 AA), sequence (P35968 790-1356): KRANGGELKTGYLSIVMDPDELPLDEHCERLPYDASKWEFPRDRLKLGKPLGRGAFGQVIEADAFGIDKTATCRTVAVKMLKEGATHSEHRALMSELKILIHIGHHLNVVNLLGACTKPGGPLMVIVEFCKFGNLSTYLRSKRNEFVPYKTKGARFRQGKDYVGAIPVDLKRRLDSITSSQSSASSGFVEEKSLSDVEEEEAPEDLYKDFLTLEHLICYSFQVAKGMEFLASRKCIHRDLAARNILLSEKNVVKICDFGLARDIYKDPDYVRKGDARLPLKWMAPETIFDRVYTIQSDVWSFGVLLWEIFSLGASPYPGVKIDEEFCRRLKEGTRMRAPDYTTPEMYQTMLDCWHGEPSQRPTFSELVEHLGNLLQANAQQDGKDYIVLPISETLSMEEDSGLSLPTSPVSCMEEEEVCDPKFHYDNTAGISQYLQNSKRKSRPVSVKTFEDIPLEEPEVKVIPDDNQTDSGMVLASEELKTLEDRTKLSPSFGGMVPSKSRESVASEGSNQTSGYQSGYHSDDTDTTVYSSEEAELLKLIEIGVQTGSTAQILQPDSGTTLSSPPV

In the case of `Cc1cc(NC(=O)Nc2ccc(F)c(C(F)(F)F)c2)cc(Oc2cc(NC(=O)C3CC3)ncn2)c1` [Exe. 092], the results for the pIC50 against KDR kinase (790-1356 AA), in the experiment with PLC-PRF-5 cells and with pERK in MDA-MB-231 cells were 6.72, 4.76 and 7.24, respectively.
The like results for `Cc1cc(NC(=O)Nc2cccc(C(F)(F)F)c2)cc(Oc2cc(NC(=O)C3CC3)ncn2)c1` [Exe. 094] were, in that order, 6.70, 4.72 and 6.79.
On the same counts, the results for `Cc1cc(NC(=O)Nc2cccc(OC(F)(F)F)c2)cc(Oc2cc(NC(=O)C3CC3)ncn2)c1` [Exe. 095] are 6.36, 4.72 and 7.09.
On the same counts, the results for `Cc1cc(NC(=O)Nc2ccc(Cl)c(C(C)(F)F)c2)cc(Oc2cc(NC(=O)C3CC3)ncn2)c1` [Exe. 096] are 6.20, 4.68 and 7.55.
As for `O=C(Nc1cc(F)cc(Oc2cc(NC(=O)C3CC3)ncn2)c1)Nc1ccc(F)c(C(F)(F)F)c1` [Exe. 097], the pIC50 at KDR kinase (790-1356 AA) was 7.20; in the experiment on PLC-PRF-5 cells, 5.04; with pERK in MDA-MB-231 cells, 6.86.
The like results for `O=C(Nc1cc(F)cc(Oc2cc(NC(=O)C3CC3)ncn2)c1)Nc1cc(F)cc(C(F)(F)F)c1` [Exe. 098] were, in that order, 6.98, 5.08 and 6.12.
On the same counts, the results for `CC(F)(F)c1cc(NC(=O)Nc2cc(F)cc(Oc3cc(NC(=O)C4CC4)ncn3)c2)ccc1Cl` [Exe. 099] are 7.39, 4.82 and 7.43.
The like results for `O=C(Nc1ccc(Oc2cc(NC(=O)C3CC3)ncn2)cc1)Nc1ccc(F)c(C(F)(F)F)c1` [Exe. 100] were, in that order, 8.05, 5.62 and 6.52.
For `O=C(Nc1ccc(Oc2cc(NC(=O)C3CC3)ncn2)cc1)Nc1cc(F)cc(C(F)(F)F)c1` [Exe. 101], the pIC50 is 7.90 against KDR kinase (790-1356 AA), 5.59 in the experiment on PLC-PRF-5 cells and 6.17 in the experiment with pERK in MDA-MB-231 cells.
The like results for `O=C(Nc1cccc(C(F)(F)F)c1)Nc1ccc(Oc2cc(NC(=O)C3CC3)ncn2)c(F)c1` [Exe. 102] were, in that order, 7.82, 6.03 and 6.53.
On the same counts, the results for `CC(F)(F)c1cccc(NC(=O)Nc2ccc(Oc3cc(NC(=O)C4CC4)ncn3)c(F)c2)c1` [Exe. 103] are 7.91, 6.43 and 6.52.
With `CC(F)(F)c1ccc(F)c(NC(=O)Nc2ccc(Oc3cc(NC(=O)C4CC4)ncn3)c(F)c2)c1` [Exe. 104], the pIC50 is 7.99 against KDR kinase (790-1356 AA), 7.00 in the experiment on PLC-PRF-5 cells and 6.60 with pERK in MDA-MB-231 cells.
Take `CC(F)(F)c1cc(NC(=O)Nc2ccc(Oc3cc(NC(=O)C4CC4)ncn3)c(F)c2)ccc1F` [Exe. 106]: the pIC50 against KDR kinase (790-1356 AA) is 7.98; in the experiment on PLC-PRF-5 cells, 6.07; with pERK in MDA-MB-231 cells it was 6.33.
On the same counts, the results for `Cc1cc(NC(=O)Nc2ccc(F)c(C(F)(F)F)c2)ccc1Oc1cc(NC(=O)C2CC2)ncn1` [Exe. 111] are 8.15, 5.58 and 7.39.
The like results for `Cc1cc(NC(=O)Nc2cccc(C(F)(F)F)c2)ccc1Oc1cc(NC(=O)C2CC2)ncn1` [Exe. 112] were, in that order, 7.84, 5.70 and 7.07.
For the molecule `Cc1cc(NC(=O)Nc2cccc(OC(F)(F)F)c2)ccc1Oc1cc(NC(=O)C2CC2)ncn1` [Exe. 113], the pIC50 on KDR kinase (790-1356 AA) was 8.09; with PLC-PRF-5 cells it was 6.11; in the experiment with pERK in MDA-MB-231 cells, 7.27.
On the same counts, the results for `Cc1cc(NC(=O)Nc2ccc(Cl)c(OC(F)(F)F)c2)ccc1Oc1cc(NC(=O)C2CC2)ncn1` [Exe. 114] are 8.01, 5.34 and 7.43.
On the same counts, the results for `Cc1cc(NC(=O)Nc2cc(F)cc(C(C)(F)F)c2)ccc1Oc1cc(NC(=O)C2CC2)ncn1` [Exe. 115] are 8.02, 5.88 and 6.52.
On the same counts, the results for `Cc1cc(NC(=O)Nc2ccc(Cl)c(C(C)(F)F)c2)ccc1Oc1cc(NC(=O)C2CC2)ncn1` [Exe. 117] are 7.92, 5.53 and 7.57.
As to `O=C(Nc1cccc(Oc2cc(NC(=O)C3CC3)ncn2)c1)Nc1ccc(F)c(C(F)(F)F)c1` [Exe. 119], the pIC50 at KDR kinase (790-1356 AA) was 7.83; with PLC-PRF-5 cells, 4.73; with pERK in MDA-MB-231 cells it was 6.74.
On the same counts, the results for `O=C(Nc1cccc(Oc2cc(NC(=O)C3CC3)ncn2)c1)Nc1cccc(C(F)(F)F)c1` [Exe. 120] are 7.92, less than 4.52 and 6.21.
Turning to `O=C(Nc1cccc(Oc2cc(NC(=O)C3CC3)ncn2)c1)Nc1cccc(OC(F)(F)F)c1` [Exe. 121], the pIC50 was 7.94 at KDR kinase (790-1356 AA), less than 4.52 in the experiment with PLC-PRF-5 cells and 6.60 with pERK in MDA-MB-231 cells.
The like results for `CC(F)(F)c1cc(NC(=O)Nc2cccc(Oc3cc(NC(=O)C4CC4)ncn3)c2)ccc1Cl` [Exe. 122] were, in that order, 8.06, 4.66 and 6.88.
On the same counts, the results for `CN(c1ccc(NC(=O)Nc2cccc(C(F)(F)F)c2)c(F)c1)c1cc(NC(=O)C2CC2)ncn1` [Exe. 123] are 8.13, 5.08 and 6.15.
The like results for `O=C(Nc1ccc(Oc2ccnc(NC(=O)C3CC3)c2)nc1)Nc1cc(N2CCC(F)CC2)cc(C(F)(F)F)c1` [Exe. 129] were, in that order, 7.85, 5.65 and 6.98.
Take `CN1CCC(c2cc(NC(=O)Nc3ccc(Oc4ccnc(NC(=O)C5CC5)c4)cn3)cc(C(F)(F)F)c2)CC1` [Exe. 134]: the pIC50 was 8.11 on KDR kinase (790-1356 AA), 6.70 in the experiment with PLC-PRF-5 cells and 7.48 with pERK in MDA-MB-231 cells.
On to `O=C(Nc1cccc(C(F)(F)F)c1)Nc1ccc(Oc2ccnc(NC(=O)C3CC3)c2)cn1` [Exe. 135], for which the pIC50 is 8.24 against KDR kinase (790-1356 AA), 7.00 in the experiment with PLC-PRF-5 cells and 6.68 in the experiment on pERK in MDA-MB-231 cells.
On the same counts, the results for `Cc1ccc(NC(=O)Nc2ccc(Oc3ccnc(NC(=O)C4CC4)c3)cc2)cc1C(F)(F)F` [Exe. 140] are 8.00, 6.64 and 7.97.
